Assay [1] concerns the target T1, Tie2 (Homo sapiens, UniProt Q02763). Put plainly: Tie-2-Kinase HTRF-Assay without kinase preactivation. Type of assay: biochemical. On the set-up: fusion protein of GST and the intracellular domains of Tie-2; GST; made in house; host or cells: insect cells (Hi-5). The following applies: GST-Tie-2 intracellular domains, 10 μM ATP. The source says: Tie2-inhibitory activity of compounds of the present invention was quantified employing two Tie2 HTRF assay as described in the following paragraphs.
A recombinant fusion protein of GST and the intracellular domains of Tie-2, expressed in insect cells (Hi-5) and purified by Glutathion-Sepharose affinity chromatography was used as kinase. Alternatively, commercially available GST-Tie2-fusion protein (Upstate Biotechnology, Dundee, Scotland) can be used As substrate for the kinase reaction the biotinylated peptide biotin-Ahx-EPKDDAYPLYSDFG (C-terminus in amid form) was used which can be purchased e.g. from the company Biosynthan GmbH (Berlin-Buch, Germany). Detection of phosphorylated product is achieved specifically by a trimeric detection complex consisting of the phosphorylated substrate, streptavidin-XLent (SA-XLent) which binds to biotin, and Europium Cryptate-labeled anti-phosphotyrosine antibody PT66 which binds to phosphorylated tyrosine.
Tie-2 (3.5 ng/measurement point) was incubated for 60 min at 22° C. in the presence of 10 μM adenosine-tri-phosphate (ATP) and 1 μM substrate peptide (biotin-Ahx-EPKDDAYPLYSDFG-NH2) with different concentrations of test compounds (0 μM and concentrations in the range 0.001-20 μM) in 5 μl assay buffer [50 mM Hepes/NaOH pH 7, 10 mM MgCl2, 0.5 mM MnCl2, 1.0 mM dithiothreitol, 0.01% NP40, protease inhibitor mixture (“Complete w/o EDTA” from Roche, 1 tablet per 2.5 ml), 1% (v/v) dimethylsulfoxide]. The reaction was stopped by the addition of 5 μl of an aqueous buffer (25 mM Hepes/NaOH pH 7.5, 0.28% (w/v) bovine serum albumin) containing EDTA (90 mM) and the HTRF (Homogeneous Time Resolved Fluorescence) detection reagents streptavidine-XLent (0.2 μM, from Cis Biointernational, Marcoule, France) and PT66-Eu-Chelate (0.3 ng/μl; a europium-chelate labelled anti-phospho-tyrosine antibody from Perkin Elmer).
The resulting mixture was incubated 1 h at 22° C. to allow the binding of the biotinylated phosphorylated peptide to the streptavidine-XLent and the PT66-Eu-Chelate. Subsequently the amount of phosphorylated substrate peptide was evaluated by measurement of the resonance energy transfer from the PT66-Eu-Chelate to the streptavidine-XLent. Therefore, the fluorescence emissions at 620 nm and 665 nm after excitation at 350 nm was measured in a HTRF reader, e.g. a Rubystar (BMG Labtechnologies, Offenburg, Germany) or a Viewlux (Perkin-Elmer). The ratio of the emissions at 665 nm and at […] was taken as the measure for the amount of phosphorylated substrate peptide. The data were normalised (enzyme reaction without inhibitor=0% inhibition, all other assay components but no enzyme=100% inhibition) and IC50 values were calculated by a 4 parameter fit using an inhouse software.
Background: In TR-FRET formats the signal depends on donor and acceptor labels being close together.
Target sequence in this assay (Q02763 770-1124 limits assumed, species assumed): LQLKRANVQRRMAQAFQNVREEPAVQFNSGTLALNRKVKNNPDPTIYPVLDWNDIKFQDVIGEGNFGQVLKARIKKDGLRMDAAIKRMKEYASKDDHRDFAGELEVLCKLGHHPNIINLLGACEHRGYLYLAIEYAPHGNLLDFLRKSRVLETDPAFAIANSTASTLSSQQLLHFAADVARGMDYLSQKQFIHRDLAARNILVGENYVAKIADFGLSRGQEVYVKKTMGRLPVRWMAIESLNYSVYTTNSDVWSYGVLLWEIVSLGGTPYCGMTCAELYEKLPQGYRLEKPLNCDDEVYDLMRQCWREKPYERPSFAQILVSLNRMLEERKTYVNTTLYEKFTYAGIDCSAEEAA

For assay [2], the target named is T1, Tie2. Put plainly: Tie2 ELISA assay (cellular Tie2 autophosphorylation). Type of assay: cell-based. On the set-up: expressed in transfected cells; host or cells: CHO (CHO Tie2/DHFR). The conditions noted are these: CHO cells stably transfected with Tie2, stimulated by angiopoietin-2; Tie2 autophosphorylation by sandwich-ELISA; read-out: Tie 2 activity (assay 1). On the procedure: Cellular activity of compounds of the present invention as inhibitors of Tie2 kinase activity was measured employing a Tie2 ELISA assay as described in the following paragraphs. Herein CHO cell-cultures, which are stably transfected by known techniques with Tie2 using DHFR deficiency as selection marker, are stimulated by angiopoietin-2. The specific autophosphorylation of Tie2 receptors is quantified with a sandwich-ELISA using anti-Tie2 antibodies for catch and anti-phosphotyrosine antibodies coupled to HRP for detection.
• 96 well tissue culture plate, sterile, Greiner • 96 well FluoroNunc plate MaxiSorp Surface C, Nunc • 96 well plate polypropylene for compound dilution in DMSO • CHO Tie2/DHFR (transfected cells) • PBS−; PBS++, DMSO • MEM alpha Medium with Glutamax-I without Ribonucleosides and Deoxyribonucleosides (Gibco #32561-029) • with 10% FCS after dialysis! and 1% PenStrep • Lysis buffer: 1 Tablet “Complete” protease inhibitor • 1 cap Vanadate (1 mL>40 mg/mL; working solution 2 mM) • ad 50 mL with Duschl-Puffer • pH 7.6 • Anti-Tie2-antibody 1:425 in Coating Buffer pH 9.6 • Stock solution: 1.275 mg/mL>working.: 3 μg/mL • PBST: 2 bottles PBS (10×)+10 ml Tween, fill up with VE-water • RotiBlock 1:10 in VE-water • Anti-Phosphotyrosine HRP-Conjugated 1:10000 in 3% TopBlock • 3% TopBlock in PBST • BM Chemiluminescence ELISA Substrate (POD) • solution B 1:100 solution A • SF9 cell culture medium • Ang2-Fc in SF9 cell culture medium
• Dispense 5×10^4 cells/well/98 μL in 96 well tissue culture plate • Incubate at 37° C./5% CO2 • After 24 h add compounds according to desired concentrations • Add also to control and stimulated values without compounds 2 μL DMSO • And mix for a few min at room temperature • Add 100 μL Ang2-Fc to all wells except control, which receives insect medium • Incubate 20 min at 37° C. • Wash 3× with PBS++ • Add 100 μl Lysis buffer/well and shake a couple of min at room temperature • Store lysates at […] before utilizing for the ELISA
• Coat 96 well FluoroNunc Plate MaxiSorp Surface C with anti-Tie2 mAb 1:425 in Coating buffer pH 9.6; 100 μL/well overnight at 4° C. • Wash 2× with PBST • Block plates with 250 μL/well RotiBlock 1:10 in VE-water • Incubate for 2 h at room temperature or overnight at 4° C. shaking • Wash 2× in PBST • Add thawed lysates to wells and incubate overnight shaking at 4° C. • Wash 2× with PBST • Add 100 μL/well anti-Phosphotyrosine HRP-Conjugated 1:10000 in 3% TopBlock (3% TopBlock in PBST) and incubate overnight under shaking • Wash 6× with PBST • Add 100 μL/well BM Chemiluminescence ELISA Substrate (POD) solutions 1 und 2 (1:100) • Determine luminescence with the LumiCount. Assay 2: Tie-2-Kinase HTRF-Assay without Kinase Preactivation
Target sequence in this assay (Q02763 23-1124, species assumed): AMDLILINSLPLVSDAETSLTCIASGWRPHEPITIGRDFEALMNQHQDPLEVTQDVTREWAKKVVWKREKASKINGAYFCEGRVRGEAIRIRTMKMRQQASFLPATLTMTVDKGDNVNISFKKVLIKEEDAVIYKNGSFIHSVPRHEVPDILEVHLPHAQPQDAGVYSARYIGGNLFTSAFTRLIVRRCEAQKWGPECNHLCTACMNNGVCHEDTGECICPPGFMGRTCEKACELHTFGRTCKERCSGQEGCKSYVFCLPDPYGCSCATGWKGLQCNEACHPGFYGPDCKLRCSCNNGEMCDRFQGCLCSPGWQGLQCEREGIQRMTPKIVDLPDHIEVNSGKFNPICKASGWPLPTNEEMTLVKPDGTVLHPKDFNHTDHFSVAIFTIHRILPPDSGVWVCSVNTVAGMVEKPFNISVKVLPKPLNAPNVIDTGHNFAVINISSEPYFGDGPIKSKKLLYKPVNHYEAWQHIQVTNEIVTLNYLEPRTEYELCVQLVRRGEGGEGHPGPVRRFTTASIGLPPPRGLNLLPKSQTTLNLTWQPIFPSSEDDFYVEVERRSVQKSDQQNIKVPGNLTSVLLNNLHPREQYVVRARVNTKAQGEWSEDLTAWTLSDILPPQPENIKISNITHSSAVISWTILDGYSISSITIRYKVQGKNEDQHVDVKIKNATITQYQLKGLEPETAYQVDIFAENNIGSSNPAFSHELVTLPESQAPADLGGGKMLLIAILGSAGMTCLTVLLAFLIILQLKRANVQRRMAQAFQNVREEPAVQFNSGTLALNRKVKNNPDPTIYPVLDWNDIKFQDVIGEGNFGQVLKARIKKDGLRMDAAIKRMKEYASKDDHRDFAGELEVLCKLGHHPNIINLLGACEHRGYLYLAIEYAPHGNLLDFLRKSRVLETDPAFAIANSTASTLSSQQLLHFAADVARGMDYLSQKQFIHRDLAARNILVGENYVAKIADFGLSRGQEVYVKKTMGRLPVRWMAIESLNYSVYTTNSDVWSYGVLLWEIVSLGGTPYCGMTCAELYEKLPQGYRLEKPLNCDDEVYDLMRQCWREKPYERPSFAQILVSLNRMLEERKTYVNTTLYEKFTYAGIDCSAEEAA

The target in assay [3] is T1, Tie2. On the set-up: expressed in transfected cells; host or cells: CHO (CHO Tie2/DHFR). The conditions noted are these: more potent against other kinases than against Tie2; cited from earlier work.
Target sequence in this assay (Q02763 23-1124, species assumed): as above
Assay [4] deals with T1, Tie2. On the set-up: expressed in transfected cells; host or cells: CHO (CHO Tie2/DHFR). The conditions noted are these: Albert et al. Mol. Cancer. Ther. 2006, 5, 995; cited from earlier work.
Target sequence in this assay (Q02763 23-1124, species assumed): as above

The structures appear in SMILES notation. A value given as a limit tells only on which side of the number the result lay.

For `Cn1ncc2c(-c3ccc(NC(=O)Nc4ccc(CN5CCN(CC6CC6)CC5)c(C(F)(F)F)c4)cc3)cncc21` [Example 13.26, 1-[4-(4-Cyclopropylmethyl-piperazin-1-ylmethyl)-3-trifluoromethyl-phenyl]-3-[4-(1-methyl-1H-pyrazolo[3,4-c]pyridin-4-yl)-phenyl]-urea], the IC50 at Tie2 [1] and at Tie2 [2] was below 501 nM throughout.
In the case of `Cc1ccc(F)c(NC(=O)Nc2ccc(-c3cccc4[nH]nc(N)c34)cc2)c1` [Abt-869], the “potency against at least 5 other kinase targets relative to Tie2” value at Tie2 [3] is on record as above 10 times. Moreover, on Tie2 [4], the “activity as inhibitor of cellular Tie2 autophosphorylation” value is given as “only modest activity”.
